Assay results taken from PMC6222450, “Computer-Aided Studies for Novel Arylhydantoin 1,3,5-Triazine Derivatives as 5-HT6 Serotonin Receptor Ligands with Antidepressive-Like, Anxiolytic and Antiobesity Action In Vivo” (Molecules : A Journal of Synthetic Chemistry and Natural …, 2018).
“And” between values parts separate entries of the source, which are not always exact repeats. Equal values may be shown once.

What was measured:
[1] = biological target: T1, 5-HT2A (Homo sapiens, UniProt P28223); experiment: Radioligand binding assay, 5-HT2A, [3H]-Ketanserin; details: human receptor stably expressed in HEK-293 cells
T1 construct: expressed in transfected cells; host or cells: HEK-293
T1 sequence (P28223 whole entry): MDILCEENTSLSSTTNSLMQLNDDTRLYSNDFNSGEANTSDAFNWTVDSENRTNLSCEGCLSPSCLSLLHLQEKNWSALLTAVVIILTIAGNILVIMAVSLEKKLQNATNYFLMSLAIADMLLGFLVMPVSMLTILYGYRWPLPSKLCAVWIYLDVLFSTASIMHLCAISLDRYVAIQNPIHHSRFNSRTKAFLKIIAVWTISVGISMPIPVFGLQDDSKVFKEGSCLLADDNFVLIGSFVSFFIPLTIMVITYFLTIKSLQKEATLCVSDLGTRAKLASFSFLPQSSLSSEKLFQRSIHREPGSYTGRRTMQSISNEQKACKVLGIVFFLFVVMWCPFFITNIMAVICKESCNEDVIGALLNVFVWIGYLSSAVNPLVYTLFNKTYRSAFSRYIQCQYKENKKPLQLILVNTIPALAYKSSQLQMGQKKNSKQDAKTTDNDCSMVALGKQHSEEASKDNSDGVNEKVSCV

[2] = Body weight of non-obese rats fed only standard diet; format: in vivo, rat; details: rats consuming standard feed, 5 mg/kg b.w. i.p.
Method: Male Wistar rats (170–190 g) were housed in a pair in plastic cages in constant temperature facilities exposed to a light-dark cycle. Control group (standard diet + vehicle) received vehicle (1% Tween 80, intraperitoneally), while the test group (standard diet + 6 or standard diet + 26) was injected (intraperitoneally) with 6 or 26 at the dose of 5 mg/kg b.w. dissolved in 1% Tween 80 (1 mL/kg). Body weights were measured daily immediately prior to administration of drugs.

[3] = biological target: T2, 5-HT1A (Homo sapiens, UniProt P08908); experiment: Radioligand binding assay, 5-HT1A, [3H]-8-OH-DPAT; details: human receptor stably expressed in HEK-293 cells
T2 construct: expressed in transfected cells; host or cells: HEK-293
T2 sequence (P08908 1-422): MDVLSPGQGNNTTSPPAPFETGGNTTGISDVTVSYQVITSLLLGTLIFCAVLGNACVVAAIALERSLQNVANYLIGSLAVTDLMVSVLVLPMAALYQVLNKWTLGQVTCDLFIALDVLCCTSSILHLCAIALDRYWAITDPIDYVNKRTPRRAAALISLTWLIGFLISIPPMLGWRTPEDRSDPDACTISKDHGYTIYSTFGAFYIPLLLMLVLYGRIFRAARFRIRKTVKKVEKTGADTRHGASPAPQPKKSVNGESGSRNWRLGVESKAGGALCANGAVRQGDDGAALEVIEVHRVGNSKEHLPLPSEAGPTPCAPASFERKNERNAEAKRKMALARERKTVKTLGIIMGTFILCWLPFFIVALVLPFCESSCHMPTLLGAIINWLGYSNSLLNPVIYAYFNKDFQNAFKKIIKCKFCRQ

[4] = biological target: T3, 5-HT7bR (Homo sapiens, UniProt P34969); experiment: Radioligand binding assay, 5-HT7bR, [3H]-5-CT; details: human 5-HT7b receptor stably expressed in HEK-293 cells; read-out: Ki 5-HT7 [3H]-5-CT
T3 construct: expressed in transfected cells; host or cells: HEK-293
T3 sequence (P34969 1-432 limits assumed): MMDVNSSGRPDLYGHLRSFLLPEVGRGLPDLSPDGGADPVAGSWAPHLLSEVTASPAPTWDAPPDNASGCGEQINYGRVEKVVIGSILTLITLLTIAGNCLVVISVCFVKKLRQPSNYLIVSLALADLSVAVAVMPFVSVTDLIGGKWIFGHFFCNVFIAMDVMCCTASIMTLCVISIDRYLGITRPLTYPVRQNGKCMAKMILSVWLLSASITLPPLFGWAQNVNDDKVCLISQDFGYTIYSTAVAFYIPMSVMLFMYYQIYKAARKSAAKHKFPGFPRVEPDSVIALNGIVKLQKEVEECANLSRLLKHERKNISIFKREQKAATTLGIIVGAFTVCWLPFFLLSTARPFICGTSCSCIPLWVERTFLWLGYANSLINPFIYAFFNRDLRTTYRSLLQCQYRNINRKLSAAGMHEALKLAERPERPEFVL

[5] = Body weight of non-obese rats fed palatable diet (model of excessive eating); format: in vivo, rat
Excerpt: In order to determine the anorectic activity of 6 or 26, the model of excessive eating was used. Male Wistar rats (170–190 g) were housed in a pair in plastic cages in constant temperature facilities exposed to a light-dark cycle. Water and food were available ad libitum. Two groups of 6 rats were fed with diets consisting of milk chocolate with nuts, cheese, salted peanuts, and 7% condensed milk and also had access to standard feed (Labofeed B, Morawski Manufacturer Feed, Kcynia, Poland) and water ad libitum for 3 weeks. Palatable control group (palatable diet + vehicle) received vehicle (1% Tween 80, intraperitoneally), while palatable test group (palatable diet + 6 or palatable + 26) was injected (intraperitoneally) with 6 or 26 at the dose of 5 mg/kg b.w. dissolved in 1% Tween 80 (1 mL/kg). Body weights were measured daily, immediately prior to administration of drugs.
The palatable diet contained: 100 g peanuts—614 kcal; 100 mL condensed milk—131 kcal; 100 g milk chocolate—529 kcal; 100g cheese (Greek type)—270 kcal. The standard diet contained 100 g feed—280 kcal.

[6] = biological target: T4, human serotonin 5-HT6R (Homo sapiens, UniProt P50406); experiment: Radioligand binding assay, 5-HT6R, [3H]-LSD displacement
T4 construct: expressed in transfected cells; host or cells: HEK-293
T4 sequence (P50406 whole entry): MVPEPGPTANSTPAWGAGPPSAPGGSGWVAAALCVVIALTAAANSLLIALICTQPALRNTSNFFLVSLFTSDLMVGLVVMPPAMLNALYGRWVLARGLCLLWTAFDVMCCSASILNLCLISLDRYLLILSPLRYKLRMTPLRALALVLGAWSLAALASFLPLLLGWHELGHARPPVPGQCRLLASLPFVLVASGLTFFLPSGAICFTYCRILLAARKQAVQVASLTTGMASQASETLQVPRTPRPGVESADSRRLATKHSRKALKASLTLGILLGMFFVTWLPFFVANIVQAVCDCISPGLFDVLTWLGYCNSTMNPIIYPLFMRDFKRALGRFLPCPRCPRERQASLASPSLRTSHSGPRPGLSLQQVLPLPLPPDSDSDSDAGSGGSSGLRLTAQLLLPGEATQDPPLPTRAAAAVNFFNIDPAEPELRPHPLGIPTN

[7] = Lipophilicity by RP-TLC; format: physicochemical; details: RP-18 TLC, water/methanol, extrapolated to 100% water
Method: For comparison, the active arylmethyl-triazine compounds previously found (1–3) were also examined. Stationary phase RP-18 and mixtures of water/methanol […] as a mobile phase were employed. RM values were calculated from the RF data obtained. […] The regression coefficients (r^2) determined for all compounds were higher than 0.95. On the basis of the linear relationship between RM values and the volume fraction of methanol, values of RM0 in the systems analyzed corresponding to 100% of water were obtained by extrapolation. RM0 values received for the compounds tested ranged from 3.14 to 4.49 (Figure 6).
The mobile phases were prepared by mixing the respective amounts of water and organic modifier (methanol) in a range from 40 to 90% (v/v) in 5% increments. TLC was performed on Silica gel 60RP-18 F254 plates (7 × 10 cm) plates (Merck, Darmstadt, Germany). Methanol was used to prepare the solutions of the substances. Solutions (10 µL) of the analyzed compounds were applied to the plates as 5 mm bands, 10 mm apart and 10 mm from the lower edge and sides of the plates, by using Linomat V applicator (Camag, Basel, Switzerland). The vertical chamber (Sigma–Aldrich, St. Louis, MI, USA), 20 × 10 × 18 cm in size, was saturated with mobile phase for 20 min. Development was carried out over 9 cm from the starting line at a temperature of 20 °C. Next, the plates were dried at room temperature, and the spots were observed under ultraviolet light at 254 nm and/or 366 nm (UV lamp, Camag, Basel, Switzerland). In each case, sharp and symmetric spots without a tendency for tailing were obtained. Each experiment was run in triplicate and mean RF (retardation factor) values were calculated.
Starting from the RF values, the RM parameters were computed as described in the formula:RM = log(1/RF − 1)
The linear correlations between the RM values of the substances and the concentration of methanol in mobile phases were calculated for each compound with the Soczewiński-Wachtmeister equation [22]:RM = RM0 + aC where C is the concentration of the organic modifier (in %) in the mobile phase, a is the slope, and RM0 is the […].

## CN1CCN(c2nc(N)nc(CN3C(=O)NC(C)(c4ccc5ccccc5c4)C3=O)n2)CC1 (centres unmarked) [Compound 26, 3-((4-Amino-6-(4-methylpiperazin-1-yl)-1,3,5-triazin-2-yl)methyl)-5-methyl-5-(naphthalen-2-yl)imidazolidine-2,4-dione]
[1]
  Ki: 17200 nM
[2]
  effect on body weight: No effects on body weight
[3]
  Ki: 14200 nM
[4]
  Ki: 514 nM
[5]; rats fed palatable feed, 5 mg/kg b.w. i.p. daily
  day of experiment from which groups differed significantly: 12 days
[5]; rats fed palatable feed, 5 mg/kg b.w. i.p., 21 days
  weight gain vs control group: significantly less weight gain
[5]; treated rats with access to preferential feed, 5 mg/kg b.w. i.p.
  body weight vs control animals fed standard feed: did not differ significantly
[6]; 5-HT6R vs 5-HT1A, 5-HT2A, 5-HT7, D2
  selectivity towards competitive G-protein coupled receptors: 6–197 fold
[6]; 5-HT6R vs 5-HT7R
  selectivity over 5-HT7R: 6 fold
[6]; human receptor stably expressed in HEK-293 cells, mean of at least two independent experiments, read-out: Ki 5-HT6 [3H]-LSD
  Ki: < 200 nM and 87 nM
[7]
  RM0: 3.76
